{
  "source": "paper PMC9982066",
  "about": "“Inhibition of Ehrlichia chaffeensis infection by cell-permeable macrocyclic peptides that bind type IV secretion effector Etf-1” (PNAS Nexus, 2023)",
  "key": {"Etf-1": {"biological_target": "Etf-1 (Ehrlichia chaffeensis, UniProt Q2GG12)", "sequence (Q2GG12 entry or part of it)": "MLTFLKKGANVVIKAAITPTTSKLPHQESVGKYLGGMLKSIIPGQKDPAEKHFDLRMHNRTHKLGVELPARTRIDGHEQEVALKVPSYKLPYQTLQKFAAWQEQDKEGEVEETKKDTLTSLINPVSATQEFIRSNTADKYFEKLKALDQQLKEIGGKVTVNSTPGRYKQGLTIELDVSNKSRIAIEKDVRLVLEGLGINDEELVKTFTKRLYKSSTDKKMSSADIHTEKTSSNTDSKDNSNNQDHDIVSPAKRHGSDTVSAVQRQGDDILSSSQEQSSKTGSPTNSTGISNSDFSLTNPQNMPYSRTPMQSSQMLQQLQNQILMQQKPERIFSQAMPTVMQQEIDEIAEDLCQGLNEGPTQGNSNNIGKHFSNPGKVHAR", "experiment": "FP assay of Etf-1 binding with FAM-labeled peptides", "protocol": "The peptides were labeled at their C-terminus with carboxyfluorescein (FAM) through a β-Ala-β-Ala-Lys linker and evaluated for binding to Etf-1 by using a fluorescence polarization (FP) assay. […] This outcome is not unexpected, as screening OBOC libraries is often complicated by false positives, due to the presence of high ligand densities on library beads ([28]).\nFig. 2. Determination of binding affinity of Etf-1-binding peptides by FP assay. […] FAM-labeled peptide (50 nM) was incubated with serially diluted Etf-1 (starting from 25–30 μM in PBS, pH 7.4, supplemented with 5 mM DTT and 0.01% Triton X-100) for 1 h at RT. FP values were measured on a Tecan Infinite M1000 Pro plate reader. Titration curves (n ≥ 3) were fitted using GraphPad Prism and analyzed with TraceDrawer to calculate dissociation constants (KD). […] Data were analyzed using GraphPad Prism and fitted to a four-parameter variable slope equation to determine IC50 values.\nEtf-1 and macrocyclic peptides were serially diluted in PBS supplemented with 5 mM DTT and 0.01% Triton X-100 (v/v). FAM-labeled peptides (50 nM) were prepared from a 10-μM DMSO stock and incubated with serially diluted Etf-1 for 1 h at room temperature (RT). Twenty microliters of the solutions were transferred to a black 384-well plate (Greiner Bio-One) and FP values were measured on a Tecan Infinite M1000 Pro plate reader with excitation and emission wavelengths at 470 and 535 nm, respectively. Titration curves (n ≥ 3) were fitted using GraphPad Prism v8.0 (GraphPad, La Jolla, CA, USA), and analyzed with TraceDrawer software v1.8 (Ridgeview Instruments AB, Uppsala, Sweden) to calculate the dissociation constant (KD, in nM)."}, "E. chaffeensis [1]": {"test_system": "E. chaffeensis", "experiment": "E. chaffeensis infection of THP-1 cells, qPCR of 16S rRNA gene normalized to human actin", "type": "cell-based, Ehrlichia chaffeensis", "protocol": "Therefore, we investigated whether these Etf-1-binding peptides can prevent the proliferation of E. chaffeensis inside host cells. THP-1 cells were infected with E. chaffeensis, then treated with the peptides at 30 min post infection (pi) for 2 days. Intracellular infection and proliferation of E. chaffeensis inside host THP-1 cells were assessed using quantitative PCR (qPCR) analysis based on E. chaffeensis 16S rRNA gene normalized by human actin (ACT) gene.\nFig. 5. Effects of Etf-1-binding peptides on E. chaffeensis infection of THP-1 cells. Ehrlichia chaffeensis-infected THP-1 cells at […] were incubated with 10 μM of Etf-1-binding macrocyclic peptide or DMSO control for 2 days.\nNo antibiotic was used throughout the study.\nDNA was extracted from each sample using Qiagen blood mini kit according to the manufacturer's instructions (Qiagen, Valencia, CA, USA), and qPCR analysis was performed in an MX3000P qPCR instrument (Stratagene, San Diego, CA, USA) using SYBR Green Real-Time PCR Master Mix (Thermo Fisher Scientific) according to the manufacturer's instructions. Five-fold serial dilutions of the control group were used to generate a standard curve to calculate the relative copy numbers of E. chaffeensis 16S rRNA normalized against human actin genes using the MX3000P software from Stratagene as described previously ([18], [44])."}, "E. chaffeensis [2]": {"test_system": "E. chaffeensis", "experiment": "morphological examination of E. chaffeensis infection of THP-1 cells by Diff-Quik staining", "settings": "THP-1 cells, Fig. S4 (with Figs. 5, S3)", "protocol": "Ehrlichia chaffeensis Arkansas strain ([43]) was cultured in THP-1 cells (ATCC, Manassas, VA, USA) in RPMI 1640 medium (Corning, Manassas, VA, USA) supplemented with 8% FBS (Atlanta Biologicals, Flowery Branch, GA, USA) and 4 mM L-glutamine (at 37°C under 5% CO2 in a humidified atmosphere. THP-1 cells were seeded at 1 × 10^5 cells/well (in 1.5-mL RPMI 1640 culture medium with 8% FBS, 4 mM L-Gln) in a 12-well plate, then infected with host cell-free E. chaffeensis at an MOI (multiplicity of infection, or numbers of bacteria per cell) of ∼30. Cells were cultured in a humidified incubator with 5% CO2 and 95% air. No antibiotic was used throughout the study. At 0.5 h post infection (pi), cells were incubated with 1–10 μM of peptides or with an equal volume of DMSO (solvent control, 2 μL per mL medium). At 2 days pi, cells were washed with 1 mL of PBS, and two drops of cells were cytospun onto glass slides by a Shandon Cytospin 4 cytocentrifuge (Thermo Fisher Scientific), then fixed and stained with HEMA 3 staining solutions (Thermo Fisher Scientific). Ehrlichia infection was observed and images were captured by a SPOT RT digital camera (Diagnostic Instruments, Sterling Heights, MI, USA) coupled to a Nikon Eclipse E400 microscope (Nikon, Melville, NY, USA)."}},
  "note": "Starred links: 1 amine or outer side, 2 acyl side, 3 side chain; linkers in the order of their positions; H or OH if unused. Positions of bridges follow the written chain, without caps; N, C: chain ends. Non-standard residues stand in square brackets, D forms with d. Residues, ends and D or L forms follow the SMILES beside them. Trimesoyl = O=C(c1cc(C(=O)[*:2])cc(C(=O)[*:3])c1)[*:1]; Phe(3-Cl) = N[C@@H](Cc1cccc(Cl)c1)C(=O)O; Phe(4-Cl) = N[C@@H](Cc1ccc(Cl)cc1)C(=O)O; Phe(4-F) = N[C@@H](Cc1ccc(F)cc1)C(=O)O; d2Nal = N[C@H](Cc1ccc2ccccc2c1)C(=O)O; βAsp = O=C(O)[C@H](CC(=O)[*:2])N[*:1]; Nle = CCCC[C@H](N)C(=O)O; Orn = NCCC[C@H](N)C(=O)O; Dap = NC[C@H](N)C(=O)O",
  "data": [
    {"compound": "CC(C)C[C@H]1NC(=O)[C@H](CO)NC(=O)[C@@H](C)NC(=O)[C@H](CCC(N)=O)NC(=O)[C@H](Cc2c[nH]cn2)NC(=O)[C@H](Cc2ccc(O)cc2)NC(=O)c2cc3cc(c2)C(=O)NC[C@H](NC1=O)C(=O)N[C@@H](Cc1ccccc1)C(=O)N[C@H](Cc1ccc2ccccc2c1)C(=O)N[C@H](CCCNC(=N)N)C(=O)N[C@@H](CCCNC(=N)N)C(=O)N[C@H](CCCNC(=N)N)C(=O)N[C@@H](CCCNC(=N)N)C(=O)N[C@H](C(N)=O)CNC3=O", "note": "[Peptide B7-3, TMA-Tyr-His-Gln-ala-Ser-leu-Dap-Phe-nal-arg-Arg-arg-Arg-Dap] (YHQ[dA]S[dL][Dap]F[d2Nal][dR]R[dR]R[Dap]-NH2; linker N-7-14 via Trimesoyl)", "values": [
      {"measurement": "Kd", "setting": "Etf-1", "value": "5.8 ± 0.5", "unit": "µM"}
    ]},
    {"compound": "CC(C)C[C@H]1NC(=O)[C@H](CO)NC(=O)[C@H]2CCCN2C(=O)[C@H](CCC(N)=O)NC(=O)[C@H](Cc2c[nH]cn2)NC(=O)[C@H](Cc2ccc(O)cc2)NC(=O)c2cc3cc(c2)C(=O)NC[C@H](NC1=O)C(=O)N[C@@H](Cc1ccccc1)C(=O)N[C@H](Cc1ccc2ccccc2c1)C(=O)N[C@H](C)C(=O)N[C@@H](CCCNC(=N)N)C(=O)N[C@H](CCCNC(=N)N)C(=O)N[C@@H](CCCNC(=N)N)C(=O)N[C@H](C(N)=O)CNC3=O", "note": "[Peptide B7-9, TMA-Tyr-His-Gln-pro-Ser-leu-Dap-Phe-nal-ala-Arg-arg-Arg-Dap] (YHQ[dP]S[dL][Dap]F[d2Nal][dA]R[dR]R[Dap]-NH2; linker N-7-14 via Trimesoyl)", "values": [
      {"measurement": "Kd", "setting": "Etf-1", "value": "30 ± 7", "unit": "µM"}
    ]},
    {"compound": "CC(C)C[C@H]1NC(=O)[C@H](CO)NC(=O)[C@H]2CCCN2C(=O)[C@H](CCC(N)=O)NC(=O)[C@H](Cc2c[nH]cn2)NC(=O)[C@H](Cc2ccc(O)cc2)NC(=O)c2cc3cc(c2)C(=O)NC[C@H](NC1=O)C(=O)N[C@@H](Cc1ccccc1)C(=O)N[C@H](Cc1ccc2ccccc2c1)C(=O)N[C@H](CCCNC(=N)N)C(=O)N[C@@H](C)C(=O)N[C@H](CCCNC(=N)N)C(=O)N[C@@H](CCCNC(=N)N)C(=O)N[C@H](C(N)=O)CNC3=O", "note": "[Peptide B7-10, TMA-Tyr-His-Gln-pro-Ser-leu-Dap-Phe-nal-arg-Ala-arg-Arg-Dap] (YHQ[dP]S[dL][Dap]F[d2Nal][dR]A[dR]R[Dap]-NH2; linker N-7-14 via Trimesoyl)", "values": [
      {"measurement": "Kd", "setting": "Etf-1", "value": "30 ± 3", "unit": "µM"}
    ]},
    {"compound": "CC(C)C[C@H]1NC(=O)[C@H](CO)NC(=O)[C@H]2CCCN2C(=O)[C@H](CCC(N)=O)NC(=O)[C@H](Cc2c[nH]cn2)NC(=O)[C@H](Cc2ccc(O)cc2)NC(=O)c2cc3cc(c2)C(=O)NC[C@H](NC1=O)C(=O)N[C@@H](Cc1cccc(Cl)c1)C(=O)N[C@H](Cc1ccc2ccccc2c1)C(=O)N[C@H](CCCNC(=N)N)C(=O)N[C@@H](CCCNC(=N)N)C(=O)N[C@H](CCCNC(=N)N)C(=O)N[C@@H](CCCNC(=N)N)C(=O)N[C@H](C(N)=O)CNC3=O", "note": "[Peptide B7-17, TMA-Tyr-His-Gln-pro-Ser-leu-Dap-3-ClPhe-nal-arg-Arg-arg-Arg-Dap] (YHQ[dP]S[dL][Dap][Phe(3-Cl)][d2Nal][dR]R[dR]R[Dap]-NH2; linker N-7-14 via Trimesoyl)", "values": [
      {"measurement": "Kd", "setting": "Etf-1", "value": "3.4 ± 0.4", "unit": "µM"}
    ]},
    {"compound": "CC(C)C[C@H]1NC(=O)[C@H](Cc2ccc(F)cc2)NC(=O)[C@@H](CCC(=O)O)NC(=O)C[C@@H](C(=O)O)NC(=O)[C@H](CCCN)NC(=O)[C@H](CC(=O)O)NC(=O)[C@H](Cc2ccc(O)cc2)NC(=O)c2cc3cc(c2)C(=O)NC[C@H](NC1=O)C(=O)N[C@@H](Cc1ccc(Cl)cc1)C(=O)N[C@H](Cc1ccc2ccccc2c1)C(=O)N[C@H](CCCNC(=N)N)C(=O)N[C@@H](CCCNC(=N)N)C(=O)N[C@H](CCCNC(=N)N)C(=O)N[C@@H](CCCNC(=N)N)C(=O)N[C@H](C(N)=O)CNC3=O", "note": "[Peptide B7-95-1, TMA-Tyr-Asp-Orn-isoAsp-glu-Fpa-leu-Dap-4-ClPhe-nal-arg-Arg-arg-Arg-Dap] (YD[Orn][βAsp][dE][Phe(4-F)][dL][Dap][Phe(4-Cl)][d2Nal][dR]R[dR]R[Dap]-NH2; linker N-8-15 via Trimesoyl)", "values": [
      {"measurement": "Kd", "setting": "Etf-1", "value": 3.2, "unit": "µM"}
    ]},
    {"compound": "CCCC[C@@H]1NC(=O)[C@H](CC(=O)O)NC(=O)[C@@H](Cc2ccccc2)NC(=O)[C@H](Cc2ccc(O)cc2)NC(=O)c2cc3cc(c2)C(=O)NC[C@H](NC(=O)[C@@H](CC(C)C)NC(=O)[C@@H](CC(N)=O)NC1=O)C(=O)N[C@@H](Cc1ccc(Cl)cc1)C(=O)N[C@H](Cc1ccc2ccccc2c1)C(=O)N[C@H](CCCNC(=N)N)C(=O)N[C@@H](CCCNC(=N)N)C(=O)N[C@H](CCCNC(=N)N)C(=O)N[C@@H](CCCNC(=N)N)C(=O)N[C@H](C(N)=O)CNC3=O", "note": "[Peptide B7-133-3, TMA-Tyr-phe-Asp-Nle-asn-leu-Dap-4-ClPhe-nal-arg-Arg-arg-Arg-Dap] (Y[dF]D[Nle][dN][dL][Dap][Phe(4-Cl)][d2Nal][dR]R[dR]R[Dap]-NH2; linker N-7-14 via Trimesoyl)", "values": [
      {"measurement": "inhibition of E. chaffeensis infection", "setting": "E. chaffeensis [1]; 10 μM, 2 days, vs DMSO control", "value": "significantly inhibited"},
      {"measurement": "dose dependence of inhibition of E. chaffeensis infection", "setting": "E. chaffeensis [1]; 1, 5, and 10 μM", "value": "dose-dependent manner"},
      {"measurement": "inhibition of E. chaffeensis infection compared with peptide B7 (or B7-16)", "setting": "E. chaffeensis [1]; THP-1 cells", "value": "significantly more potent inhibition"},
      {"measurement": "E. chaffeensis infection (numbers and sizes of morulae)", "setting": "E. chaffeensis [2]", "value": "significantly inhibited"}
    ]},
    {"compound": "CCCC[C@@H]1NC(=O)[C@H](Cc2ccc(O)cc2)NC(=O)c2cc3cc(c2)C(=O)NC[C@H](NC(=O)[C@@H](CC(C)C)NC(=O)CNC(=O)[C@H](CCC(N)=O)NC(=O)[C@@H](CCC(=O)O)NC1=O)C(=O)N[C@@H](Cc1ccc(Cl)cc1)C(=O)N[C@H](Cc1ccc2ccccc2c1)C(=O)N[C@H](CCCNC(=N)N)C(=O)N[C@@H](CCCNC(=N)N)C(=O)N[C@H](CCCNC(=N)N)C(=O)N[C@@H](CCCNC(=N)N)C(=O)N[C@H](C(N)=O)CNC3=O", "note": "[Peptide B7-133-4, TMA-Tyr-Nle-glu-Gln-Gly-leu-Dap-4-ClPhe-nal-arg-Arg-arg-Arg-Dap] (Y[Nle][dE]QG[dL][Dap][Phe(4-Cl)][d2Nal][dR]R[dR]R[Dap]-NH2; linker N-7-14 via Trimesoyl)", "values": [
      {"measurement": "Kd", "setting": "Etf-1", "value": "6.5 ± 0.1", "unit": "µM"}
    ]}
  ]
}
